Assay results as given in US6867305B2, “Synthesis of epothilones, intermediates thereto and analogues thereof” (Sloan-Kettering Institute for Cancer Research, priority 1996, dated 2005).
Where “and” joins values, the source holds several entries; their conditions need not be identical. Identical values can stand only once. Like-named read-outs stand apart in the source and are kept apart here.

Assays:
[1] = tested on: CCRF-CEM/VBL leukemia xenograft; assay: Human tumor xenograft in nude mice; assay type: in vivo; settings: for Lowest Average Tumor Size (T/C) / Tumor Disappearance: CCRF/VBL, dEpoB 30 mg/kg, Taxol 20 mg/kg, Q2Dx5, 6-hr i.v. infusion
Outline: (§1)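 Male athymic nu/nu mice bearing s.c. flank tumours from 5×10^6 cells or 30-50 mg tissue; dosing began at 35-200 mm^3 as 6 hr tail-vein i.v. infusion every other day ×5 unless otherwise indicated. Caliper tumour volume, body weight and lethality recorded every other day; 3-5 mice per group.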

[2] = tested on: A549 lung carcinoma xenograft; assay: Human tumor xenograft in nude mice; assay type: in vivo
Outline: as §1

[3] = Stability in plasma in vitro (HPLC); assay type: in vitro ADME, human
Method: (FIG. 44). […] (FIG. 44).
(§2) Human blood plasma or nude mice plasma (300 μl) containing dEpoB (0.05-20 μg/ml) was added 30 μl of methanol and mixed for 2 min and then added 300 μl of methanol. The centrifuge supernatant was used for high performance liquid chromatography (HPLC). Nova-pak C18 column (15 cm) was used, with 50% acetonitrile/water with 0.8% triethylamine and 0.2% phosphoric acid as mobile phase. UV absorbance at 250 nm was measured.
Stability of dEpoF in animal plasmas. A HPLC method is set up using a NovaPak C 18, 3.9×300 mm column with a mobile phase of 50% acetonitrile in 50 mM potassium dihydrogen phosphate with 0.01% triethylamine at a flow rate of 0.8 ml/min. dEpoF is monitored at a wavelength of 260 nm and has a retention time of about 10 min. The plasma stability is performed with mouse plasma and dog plasma purchased from Pel-Freeze and human plasma from the blood center in MSKCC. A small amount of dEpoF was dissolved in 50% methanol/water at a concentration of 500 μg/mL. An aliquot of 20 μL is then spiked to 2 mL of plasma to a final plasma concentration of 5 μg/mL. The plasma samples were kept at 37 degree. […] Twenty μL of the supernatant was analyzed by HPLC without further modification. dEpoF disappears rapidly with half life about one hour in the commercial frozen mouse plasma alone, but stable in dog and human plasma.

[4] = Toxicity in beagle dogs, 10-min i.v. infusion; assay type: in vivo, beagle dog
Method: (§3) dEpoB at doses of 2, 6, 12 and 20 mg/kg, were given to male beagle dogs (11.2-14 kg) via i.v. infusion. The infusion volume was 1 ml/kg for 10 min using the Harvard PHD2000 pump (Harvard Apparatus). dEpoB was formulated in Cremophor 3%, ethanol 3%, propyleneglycol 40% and 5% glucose 54%. The animal was pretreated at −30 min with Benadryl 5 mg/kg, i.v.; cimetidine 5 mg/kg i.m.; and dexamethasone 1 mg/kg, i.e. to minimize allergic reactions due to Cremophor administration.
At 12 mg/kg. […] The body-weight slowly recovered in 2-3 weeks. […] There was a gross abnormality (reddish discoloration) of the intestinal mucosa from duodenum to the ileum. The small intestines contained blood tinged mucinous materials. […] Necrosis of intestinal mucosal epithelium with crypt cells most severely affected at this lethal dose.

[5] = tested on: Human lung carcinoma A549 cells; settings: A549 cells exposed to IC50-IC90: VBL 14.3 months, paclitaxel and adriamycin 21.3 months, dEpoB 21.4 months
Text: Repeated exposure of human lung carcinoma A549 cells to sublethal concentrations of antitumor agents may lead to the development of drug resistance.
Every several weeks, cells were harvested for the dose-effect analysis to determine their folds of resistance (using SRB protein staining assay) based on comparing the IC50 value with the IC50 value of the untreated parent cells. Trypsinized/washed cells were used for propagating the cell lineage.

[6] = tested on: SK-OV-3 ovary adenocarcinoma xenograft; assay: Human tumor xenograft in nude mice; assay type: in vivo
Outline: as §1

B16 Melanoma = assay type: in vivo, murine; settings: mouse, in vivo
[7] = Pharmacokinetics in beagle dogs; assay type: in vivo; settings: male, dog, plasma, intravenous, 6 mg/kg, 10-min i.v. infusion
Method: as §3
Pharmacokinetic studies were also carried out for of dEpoB in beagle dogs at 6 mg/kg (120 mg/m^2 body surface), with 10-min i.v. infusion. Serial blood samples were collected in 5 ml heparinized tubes intermittently from-15 min to 24 hours. Plasma concentrations of dEpoB were determined by HPLC as described in methods.
as §2

[8] = Stability in plasma in vitro (HPLC); assay type: in vitro ADME, dog; settings: 5 μg/mL, 37 degree
Method: Stability of dEpoF in animal plasmas. A HPLC method is set up using a NovaPak C 18, 3.9×300 mm column with a mobile phase of 50% acetonitrile in 50 mM potassium dihydrogen phosphate with 0.01% triethylamine at a flow rate of 0.8 ml/min. dEpoF is monitored at a wavelength of 260 nm and has a retention time of about 10 min. The plasma stability is performed with mouse plasma and dog plasma purchased from Pel-Freeze and human plasma from the blood center in MSKCC. A small amount of dEpoF was dissolved in 50% methanol/water at a concentration of 500 μg/mL. An aliquot of 20 μL is then spiked to 2 mL of plasma to a final plasma concentration of 5 μg/mL. The plasma samples were kept at 37 degree. At the time point, 200 μL of the plasma was removed and added to 400 μL of methanol to precipitate the plasma protein. Twenty μL of the supernatant was analyzed by HPLC without further modification. dEpoF disappears rapidly with half life about one hour in the commercial frozen mouse plasma alone, but stable in dog and human plasma.

tubulin = assay: Tubulin-binding / tubulin polymerization assay; assay type: biochemical
[9] = A549, dEpoB 40 mg/kg, Taxol 15 mg/kg, Q2Dx3, 6-hr i.v. infusion
[10] = SK-OV-3, dEpoB 30 mg/kg, Taxol 15 mg/kg, Q2Dx6, 6-hr i.v. infusion

CC(=O)O[C@H]1C(=O)[C@@]2(C)[C@H]([C@H](OC(=O)c3ccccc3)[C@]3(O)C[C@H](OC(=O)[C@H](O)[C@@H](NC(=O)c4ccccc4)c4ccccc4)C(C)=C1C3(C)C)[C@]1(OC(C)=O)CO[C@@H]1C[C@@H]2O [Taxol, paclitaxel, reference compound]
Lowest Average Tumor Size (T/C) [1]: 0.62
Tumor Disappearance [1]: 0/2
Tumor Disappearance [2, 9]: 2/4

C/C1=C/C[C@@H](/C(C)=C/c2csc(C)n2)OC(=O)C[C@H](O)C(C)(C)C(=O)[C@H](C)[C@@H](O)[C@@H](C)CCC1 [dEpoB, 12,13-desoxyepothilone B]
period of stability in human plasma in vitro ([3]; human plasma, HPLC): over 3 hrs
clinical signs ([4]; 12 mg/kg): moderate diarrhea (without blood)
decrease in white blood cell (WBC) counts ([4]; 12 mg/kg): 13%
drop in body-weight on day 3 ([4]; 12 mg/kg): 1.3 kg
histopathology of 28 organs or tissues ([4]; 12 mg/kg): No significant histopathologic lesions
platelet counts, ALT, AST ([4]; 12 mg/kg): No significant changes
WBC on day 3 ([4]; 20 mg/kg): 0.6 k/μl
body-weight loss on day 2 ([4]; 20 mg/kg): 0.9 kg
body-weight loss on day 3 ([4]; 20 mg/kg): 3.6 kg
increase in ALT and AST by day 4 ([4]; 20 mg/kg): 3-6 fold
lethality ([4]; 20 mg/kg): expired on day 4
clinical signs on day 2 ([4]; 20 mg/kg i.v.): severe bloody diarrhea and dehydration
toxicity ([4]; 2 or 6 mg/kg (40 and 120 mg/m^2)): No significant toxicity
fold resistance developed to the drug after repeated exposure [5]: 21 fold
Therapeutic Effect Rank Order ([6]; SK-OV-3, i.v. infusion): Taxol>>dEpoB
Therapeutic Effect Rank Order ([6]; SK-OV-3, i.v. or i.p., ref 19 (Table 6)): dEpoB≈Taxol
Therapeutic Effects dEpoB vs Taxol ([6]; SK-OV-3, dEpoB 30 mg/kg, Taxol 15 mg/kg, Q2Dx6): <<
Lowest Average Tumor Size (T/C) [6, 10]: 0.17
Tumor Disappearance [6, 10]: 0/3
Therapeutic Effect Rank Order ([1]; CCRF-CEM/VBL, i.v. infusion): dEpoB>>>Taxol
Lowest Average Tumor Size (T/C) [1]: 0
Tumor Disappearance [1]: 2/2
Therapeutic Effect Rank Order ([2]; A549, i.v. infusion): Taxol, dEpoB, VBL>VP-16
Lowest Average Tumor Size (T/C) [2, 9]: 0.01
Tumor Disappearance [2, 9]: 1/3
Therapeutic Effect Rank Order (B16 Melanoma): dEpoB>Taxol>>EpoB
concentration at 24 hr ([7]; read-out: plasma concentration at the end of 24-hr collection): 45 ng/mL and 92 nM
half-life ([7]; read-out: α-phase t1/2 (converted)): 114 min
half-life ([7]; read-out: β-phase t1/2 (converted)): 1260 min

C/C1=C/C[C@@H](/C(C)=C/c2csc(CO)n2)OC(=O)C[C@H](O)C(C)(C)C(=O)[C@H](C)[C@@H](O)[C@@H](C)CCC1 [dEpoF, 12,13-Desoxyepothilone F]
stability in human plasma ([3]; 5 μg/mL, 37 degree): stable
stability in dog plasma [8]: stable
tubulin-binding activity retained relative to dEpoB (tubulin): 90%
